Test results reported in article PMC9127750, “Structure-based design of CDC42 effector interaction inhibitors for the treatment of cancer” (Cell reports, 2022).
Several values for one entry are separate records, joined by “and”; a condition that tells them apart may be missing. Equal entries are not always repeated.

Test system: WM3248 melanoma cells, 486 antibodies
Experiment: Reverse phase protein arrays (RPPA)
Format: cell-based, Human
From the text: Pellets were snap frozen in liquid nitrogen and shipped to MD Anderson Cancer Center core RPPA facility for RPPA analysis (Table S5). Three biological replicates for each sample were generated.
Nomenclatures on the RPPA heatmaps: name_of_antibody.species_of_antibody.status_of_antibody. V - antibody validated; C - validation of antibody in progress; Q - antibody nonspecific; E – under evaluation; antibodies raised in M - mouse, G - goat, R - rabbit, or T - rat.

CN(C)c1cccc(Nc2cc(-c3ccccc3)nc(C3CCNCC3)n2)c1 [ARN22089, N1,N1-dimethyl-N3-(6-phenyl-2-(piperidin-4-yl)pyrimidin-4-yl)benzene-1,3-diamine]
c.Jun_pS73.R.V normalized signal (Norm_20 Average): 0.769
c.Kit.R.V normalized signal (Norm_20 Average): 1.333
c.Met_pY1234_Y1235.R.V normalized signal (Norm_20 Average): 1.008
c.Myc.R.C normalized signal (Norm_20 Average): 0.930
cGAS.R.V normalized signal (Norm_20 Average): 0.995
cdc2_pY15.R.C normalized signal (Norm_20 Average): 0.940
cdc25C.R.V normalized signal (Norm_20 Average): 0.832
C.Raf.R.C normalized signal (Norm_20 replicates): 0.926 and 0.909 and 1.022
C.Raf_pS338.R.V normalized signal (Norm_20 replicates): 1.047 and 0.977 and 1.202
CA9.R.C normalized signal (Norm_20 replicates): 0.834 and 0.857 and 0.980
CD2.M.C normalized signal (Norm_20 replicates): 0.856 and 0.882 and 0.876
CD4.R.V normalized signal (Norm_20 replicates): 1.114 and 0.892 and 1.008
CD5.M.C normalized signal (Norm_20 replicates): 0.915 and 0.968 and 0.950
CD20.R.C normalized signal (Norm_20 replicates): 1.024 and 1.514 and 1.531
CD26.R.V normalized signal (Norm_20 replicates): 1.033 and 0.940 and 1.351
CD29.M.V normalized signal (Norm_20 replicates): 0.857 and 0.910 and 0.908
CD31.M.V normalized signal (Norm_20 replicates): 0.884 and 0.896
CD38.R.C normalized signal (Norm_20 replicates): 1.108 and 1.163
CD44.R.C normalized signal (Norm_20 replicates): 0.959 and 1.005
CD45.M.V normalized signal (Norm_20 replicates): 0.835 and 0.934
CD49b.M.V normalized signal (Norm_20 replicates): 0.952 and 1.078 and 1.005
CD68.M.C normalized signal (Norm_20 replicates): 0.919 and 0.910
CD74.M.V normalized signal (Norm_20 replicates): 0.908 and 0.967 and 0.901
CD134.R.V normalized signal (Norm_20 replicates): 0.960 and 0.966
CD171.M.V normalized signal (Norm_20 replicates): 0.652 and 0.837 and 0.648
CDK1_pT14.R.C normalized signal (Norm_20 replicates): 1.055 and 0.710 and 1.260
CDK9.R.V normalized signal (Norm_20 replicates): 0.996 and 0.856 and 0.946
CDKN2A.R.C normalized signal (Norm_20 replicates): 0.854 and 0.981 and 0.927
CDT1.R.V normalized signal (Norm_20 replicates): 0.785 and 0.945 and 0.841
CENP.A.R.V normalized signal (Norm_20 replicates): 0.821 and 2.735 and 1.018
CHD1L.R.V normalized signal (Norm_20 replicates): 0.858 and 0.933 and 1.056
CIITA.R.C normalized signal (Norm_20 replicates): 0.943 and 1.115 and 1.149
COG3.R.V normalized signal (Norm_20 replicates): 0.982 and 0.987 and 1.164
CRABP1.R.C normalized signal (Norm_20 replicates): 0.873 and 1.063
CRABP2.R.V normalized signal (Norm_20 replicates): 0.668 and 1.048 and 0.808
CREB_pS133.R.C normalized signal (Norm_20 replicates): 0.993 and 1.115 and 1.463
CSK.R.C normalized signal (Norm_20 replicates): 0.890 and 0.821 and 1.057
Calnexin.R.V normalized signal (Norm_20 replicates): 0.950 and 0.927 and 0.903
Caspase.3.cleaved.R.C normalized signal (Norm_20 replicates): 1.050 and 1.052 and 0.937
Caspase.7.cleaved..R.C normalized signal (Norm_20 replicates): 1.145 and 0.913 and 0.981
Caspase.8.M.Q normalized signal (Norm_20 replicates): 0.921 and 1.010 and 0.953
Caspase.8.cleaved.R.C normalized signal (Norm_20 replicates): 0.981 and 0.904 and 0.986
Caveolin.1.R.V normalized signal (Norm_20 replicates): 0.827 and 0.896 and 0.874
Cdc6.R.V normalized signal (Norm_20 replicates): 1.058 and 0.691 and 0.803
Cdc42.R.C normalized signal (Norm_20 replicates): 0.945 and 1.025 and 1.019
Chk1.M.C normalized signal (Norm_20 replicates): 0.656 and 0.821 and 0.882
Chk1_pS296.R.V normalized signal (Norm_20 replicates): 0.970 and 0.828 and 1.051
Chk1_pS345.R.C normalized signal (Norm_20 replicates): 1.119 and 1.167 and 1.225
Chk2.M.V normalized signal (Norm_20 replicates): 0.658 and 0.864 and 1.104
Chk2_pT68.R.C normalized signal (Norm_20 replicates): 0.997 and 1.290 and 1.096
Claudin.7.R.V normalized signal (Norm_20 replicates): 0.881 and 1.747 and 1.050
Collagen.VI.R.V normalized signal (Norm_20 replicates): 1.201 and 0.989 and 0.848
Complex.II.Subunit.M.V normalized signal (Norm_20 replicates): 0.922 and 0.878 and 1.206
Connexin.43.R.C normalized signal (Norm_20 replicates): 0.931 and 1.019
Coup.TFII.R.C normalized signal (Norm_20 replicates): 1.109 and 0.920 and 0.985
Cox2.R.C normalized signal (Norm_20 replicates): 1.356 and 1.253 and 1.438
Cox.IV.R.V normalized signal (Norm_20 replicates): 1.130 and 0.864 and 0.981
Creb.R.C normalized signal (Norm_20 replicates): 0.982 and 1.104
CtIP.R.V normalized signal (Norm_20 replicates): 0.991 and 0.925 and 0.970
Cyclin.B1.R.V normalized signal (Norm_20 replicates): 0.884 and 0.735 and 1.285
Cyclin.D1.R.C normalized signal (Norm_20 replicates): 0.990 and 1.056 and 0.913
Cyclin.D3.M.V normalized signal (Norm_20 replicates): 0.612 and 0.725 and 0.909
Cyclin.E1.R.V normalized signal (Norm_20 replicates): 0.878 and 0.955 and 0.872
Cyclophilin.F.M.V normalized signal (Norm_20 replicates): 0.906 and 0.884 and 1.010
D.a.Tubulin.R.V normalized signal (Norm_20 replicates): 1.030 and 0.992
DAPK1_pS308.M.C normalized signal (Norm_20 replicates): 1.481 and 2.154 and 2.593
DAPK2.R.C normalized signal (Norm_20 replicates): 0.964 and 1.008
DDB.1.R.V normalized signal (Norm_20 replicates): 1.193 and 0.735 and 0.837
DDR1.R.V normalized signal (Norm_20 replicates): 0.952 and 1.004 and 1.031
DDR1_pY513.R.C normalized signal (Norm_20 replicates): 1.061 and 1.271 and 0.913
DJ1.R.V normalized signal (Norm_20 replicates): 1.006 and 0.828 and 0.954
DM.Histone.H3.R.V normalized signal (Norm_20 replicates): 3.935 and 0.881
DM.K9.Histone.H3.M.V normalized signal (Norm_20 replicates): 2.137 and 0.933
DNA.Ligase.IV.R.C normalized signal (Norm_20 replicates): 0.747 and 1.076
DNA_POLG.R.V normalized signal (Norm_20 replicates): 1.105 and 1.113 and 1.034
c.Jun_pS73.R.V normalized signal (Norm_20 replicates): 0.847 and 0.671 and 0.789
c.Kit.R.V normalized signal (Norm_20 replicates): 1.304 and 1.335 and 1.361
c.Met_pY1234_Y1235.R.V normalized signal (Norm_20 replicates): 1.007 and 1.003 and 1.014
c.Myc.R.C normalized signal (Norm_20 replicates): 0.879 and 0.953 and 0.957
cGAS.R.V normalized signal (Norm_20 replicates): 0.887 and 1.171 and 0.926
cdc2_pY15.R.C normalized signal (Norm_20 replicates): 0.878 and 0.795 and 1.146
cdc25C.R.V normalized signal (Norm_20 replicates): 0.758 and 0.751 and 0.986
